Data taken from patent US20230210864A1, “AGENT FOR PROMOTING CORNEAL ENDOTHELIAL CELL ADHESION” (Senju Pharmaceutical Co., Ltd., priority 2007, published 2023).

How the values were obtained:
[1] = test system: monkey corneal endothelial cells; experiment: Cell morphology in passage culture of monkey corneal endothelial cells (phase contrast, phalloidin fluorescence staining); type: cell-based, Macaca fascicularis; conditions: passage culture on slide glass
Experimental: The Macaca fascicularis corneal endothelial cells passage-cultured in the same manner as in Example 6 were subcultured on a slide glass to a dilution of ¼. […] Furthermore, the corneal endothelial cells on the slide glass were fixed with 4% para-formaldehyde at room temperature for 10 min, and actin fiber was stained by phalloidin fluorescence staining (FIGS. 10A and 10B).

[2] = test system: human corneal endothelial cells; experiment: Primary culture of human corneal endothelial cells with Y-27632, phase contrast observation; type: cell-based; conditions: Y-27632 10 μM
Experimental: Of human corneal tissues obtained from the US eye bank, the central part (diameter 7 mm) had been used for corneal transplantation and the remaining surrounding corneal tissue was used. The Descemet's membrane with corneal endothelial cells adhered thereto was separated. For the ROCK inhibitor(+) group, the Descemet's membrane was placed in a medium for corneal endothelium added with Y-27632 (10 μM) and incubated under the conditions of 37° C., 5% CO2 for 10 min. For the ROCK inhibitor(−) group, the membrane was placed in a medium for corneal endothelium without addition of Y-27632 and incubated for 10 min under the same conditions. As the medium for corneal endothelium, the same culture medium as in Example 1 was used. The Descemet's membrane after the incubation was incubated together with Dispase II (1.2 U/ml, Roche Applied Science) under the conditions of 37° C., 5% CO2 for 45 min, and the corneal endothelial cells were mechanically separated by a pipetting operation. The separated corneal endothelial cells were centrifuged and stirred in the media for corneal endothelium with Y-27632(+) and Y-27632(−) to the same concentration, and the cells were seeded on a 48 well plate pre-treated with an FNC coating mix (Athena ES) at a density of about 10000 cells per well. […]

[3] = test system: monkey corneal endothelial cells; experiment: Apoptosis of monkey corneal endothelial cells (flow cytometry with Annexin V and PI); type: cell-based, Macaca fascicularis; conditions: Y-27632 10 μM, day 1 of the passage culture
Experimental: The Macaca fascicularis corneal endothelial cells passage-cultured in the same manner as in Example 6 were subcultured to a dilution of ¼. A medium for corneal endothelium added with Y-27632 (10 μM) was used for the ROCK inhibitor(+) group and a medium for corneal endothelium without addition of Y-27632 was used for the ROCK inhibitor(−) group. On day 1 of the passage culture, all the cells including those in the medium were collected using 0.05% trypsin and subjected to flow cytometry using Annexin V and PI (Propidium Iodide), and apoptosis was examined (FIGS. 14 and 15).

[4] = test system: monkey corneal endothelial cells; experiment: Cell cycle of monkey corneal endothelial cells (anti-Ki67 antibody immunostaining and flow cytometry); type: cell-based, Macaca fascicularis; conditions: Y-27632 10 μM
Experimental: The Macaca fascicularis corneal endothelial cells passage-cultured in the same manner as in Example 6 were subcultured on a slide glass to a dilution of ¼. A medium for corneal endothelium added with Y-27632 (10 μM) was used for the ROCK inhibitor(+) group and a medium for corneal endothelium without addition of Y-27632 was used for the ROCK inhibitor(−) group. On days 1, 2 and 14 of the passage culture, the corneal endothelial cells on the slide glass were fixed with 4% para-formaldehyde at room temperature for 10 min, and immunostained with anti-Ki67 antibody (FIG. 11). Similarly, moreover, the Macaca fascicularis corneal endothelial cells were passage-cultured to a dilution of ¼ in each of the ROCK inhibitor(+) group and ROCK inhibitor(−) group. On days 1 and 2 of the passage culture, the cells were collected using 0.05% trypsin and subjected to flow cytometry using anti-Ki67 antibody, and the cell cycle was examined (FIGS. 12 and 13).

[5] = test system: monkey corneal endothelial cells; experiment: Primary culture of monkey corneal endothelial cells with Y-27632, phase contrast observation; type: cell-based, Macaca fascicularis; conditions: Y-27632 10 μM
Experimental: From the corneal tissue isolated from Macaca fascicularis euthanized for other purpose, Descemet's membrane with corneal endothelial cells attached thereto was separated. For the ROCK inhibitor(+) group, the Descemet's membrane was placed in a medium for corneal endothelium added with Y-27632 (10 μM) and incubated under the conditions of 37° C., 5% CO2 for 10 min. For the ROCK inhibitor(−) group, the membrane was placed in a medium for corneal endothelium without addition of Y-27632 and incubated for 10 min under the same conditions. As the medium for corneal endothelium, the same cell culture medium as in Example 1 was used. The Descemet's membrane after the incubation was incubated together with Dispase II (1.2 U/ml, Roche Applied Science) under the conditions of 37° C., 5% CO2 for 45 min, and the corneal endothelial cells were mechanically separated by a pipetting operation. The separated corneal endothelial cells were centrifuged and stirred in the media for corneal endothelium with Y-27632(+) and Y-27632(−) to the same concentration, and the cells were seeded on a 12 well plate at a density of about 20000 cells per well. The plate was pre-treated with an FNC coating mix (Athena ES) for 10 min. […]

[6] = days 1 and 2 of the passage culture

SMILES: CC(N)[C@H]1CC[C@H](C(=O)Nc2ccncc2)CC1 (single isomer, unassigned; (+)) [Y-27632, (+)-trans-4-(1-aminoethyl)-1-(4-pyridylcarbamoyl)cyclohexane]
- actin stress fiber (phalloidin fluorescence staining) ([1]; 24 hr): actin stress fiber was clearly observed
- cell adhesion and morphology at 24 hr after the passage (phase contrast) ([1]; dilution ¼): adhesion of the cells onto the slide glass increased, flattening to corneal endothelial cell-like cells was promoted, and aggregation of cells also increased
- cell layer morphology and density on day 7 after the start of the culture [2]: a confluent and highly dense single cell layer consisting of cells (uniform polygonal cells) similar to normal corneal endothelial cells was formed
- number of apoptotic cells per 1×10^4 cells, compared to ROCK inhibitor(−) group [3]: significant decrease
- ratio of apoptotic cells to the entire cells, compared to ROCK inhibitor(−) group [3]: significant decrease
- number of Ki67 positive cells by immunostaining, compared to ROCK inhibitor(−) group ([4]; day 14, almost confluent): less than that of the ROCK inhibitor(−) group
- Ki67 positive cells by flow cytometry, compared to ROCK inhibitor(−) group [4, 6]: contained many Ki67 positive cells
- Ki67 positive cells by immunostaining, compared to ROCK inhibitor(−) group [4, 6]: contained many Ki67 positive cells
- number of days before reaching confluent ([5]; 7 for ROCK inhibitor(−)): 3 days
- cells adhered onto the plate as compared to ROCK inhibitor(−) ([5]; after 24 hr from the start of the culture): apparently more cells were adhered onto the plate
